In ChEMBL document CHEMBL4483862, “Open-source discovery of chemical leads for next-generation chemoprotective antimalarials” (2018):

Tested on: Plasmodium berghei
Test: Luciferase/luciferin-expressing antifolate-resistant parasites were used to infect a culture of HepG2 cells that were pre-incubated with compounds. Infected hepatocytes emit light due to the luciferase reaction. Assay results are presented as the percent inhibition of light emission compared to control. […]
Type: functional
Conditions: sporozoite; for IC50: read-out: LUCIFERASE INFECTION ASSAY - IC50; for IC90: read-out: LUCIFERASE INFECTION ASSAY - IC90

Structure (SMILES) | IC50 | IC90
Cc1c(Cl)cccc1N=C(NS(=O)(=O)c1cccs1)c1ccccc1 | > 10 µM | > 10 µM
O=C(OCN1C(=O)c2ccccc2C1=O)c1ccc(OCC2CCCO2)cc1 (stereo unspecified) | > 10 µM | > 10 µM
Cc1nnc(NC(=O)CN2CCC(c3nc4ccccc4o3)CC2)s1 | > 10 µM | > 10 µM
COc1ccc(-c2nc(NC(=O)c3ccc(-n4cccn4)nc3)sc2C)cc1 | > 10 µM | > 10 µM
CN(Cc1ccsc1)c1nc(C(F)(F)F)nc2ccccc12 | > 10 µM | > 10 µM
CCN1C(c2ccc(C)cc2)=CS/C1=C(/C#N)c1nnc2n1CCCCC2 | > 10 µM | > 10 µM
CN(Cc1nccn1C(F)F)c1ncnc2sccc12 | > 10 µM | > 10 µM
COc1ccc(NC(=O)C(c2ccccc2)N2CCN(C)CC2)cc1Cl (stereo unspecified) | > 10 µM | > 10 µM
O=C(CC1(C(F)(F)F)OCCO1)Nc1ccc(C(OC(=O)c2ccc(F)cc2)(C(F)(F)F)C(F)(F)F)cc1 | > 10 µM | > 10 µM
C=CCNC(=O)CN(C)S(=O)(=O)c1ccc2c(c1)OCCCO2 | > 10 µM | > 10 µM
CC(OC(=O)c1cccnc1N)C(=O)Nc1ccc2ccccc2c1 (stereo unspecified) | > 10 µM | > 10 µM
Cc1cc(N2CCN(c3nc(C)cc(C)c3C#N)CC2)nc(C(C)C)n1 | > 10 µM | > 10 µM
CC1CCC(NC(=O)c2ccc(S(=O)(=O)Nc3ccccc3)cc2)CC1 (stereo unspecified) | > 10 µM | > 10 µM
CCN(CC)S(=O)(=O)c1ccc(C(=O)Nc2ccc(C34CC5CC(CC(O)(C5)C3)C4)cc2)cc1 | > 10 µM | > 10 µM
Cc1cccc(NC(=O)CNC(=O)c2ccc3c(c2)C(=O)N(C)C3=O)c1C | > 10 µM | > 10 µM
Cc1nc2ccccc2c(C)c1CC(=O)NCc1coc(-c2cccs2)n1 | > 10 µM | > 10 µM
CCc1ccc(-c2nc(Cn3cnc4ccccc4c3=O)cs2)cc1 | > 10 µM | > 10 µM
O=C(c1ccc(=O)[nH]c1)N1CCN(Cc2nc(=O)c3ccccc3[nH]2)CC1 | > 10 µM | > 10 µM
CC(c1ccc(S(C)(=O)=O)cc1)N(C)S(=O)(=O)c1ccccc1F (stereo unspecified) | > 10 µM | > 10 µM
Cc1cc(C(=O)CSc2nnc(C3CC3)[nH]2)c(C)n1CCC1=CCCCC1 | > 10 µM | > 10 µM
COc1cc(C(=O)N2CC=C(c3c[nH]c4ccccc34)CC2)ccc1C | > 10 µM | > 10 µM
CCc1ccc(C2=NNC(=Nc3ccccc3F)SC2)s1 | > 10 µM | > 10 µM

Structure (SMILES) | IC50 | IC90
CC1CCc2sc(C(=O)Nc3cccc4c3C(=O)NC4)cc2C1 (stereo unspecified) | 3.61 µM | 4.22 µM
Cc1ccc(NC(=O)c2cccc(NS(=O)(=O)c3ccc(C)c(F)c3)c2)nc1 | > 10 µM | > 10 µM
NC(=O)C1CCN(c2nc(-c3cccs3)nc3sc4c(c23)CCCC4)CC1 | > 10 µM | > 10 µM
Cc1cc(Oc2ccc(-c3ccccc3)cc2)nc(C)n1 | > 10 µM | > 10 µM
Cc1cccc(C(=O)NC(C(=O)Nc2ccn(C)n2)C(C)C)c1 (stereo unspecified) | > 10 µM | > 10 µM
Cc1ccc(C(=O)NCCSc2ccc(Cl)cc2)o1 | > 10 µM | > 10 µM
COc1ccccc1CNC(=O)CN1CCN(c2cc(C)nc(C(C)C)n2)CC1 | > 10 µM | > 10 µM
CNc1snc(C)c1C(=O)NC(C)c1ccc(OC(F)F)cc1 (stereo unspecified) | 8.84 µM | 9.96 µM
COC(=O)c1ccc(C)c(NC(=O)CCc2ccc3c(c2)OCCO3)c1 | > 10 µM | > 10 µM
COC(=O)C1=C(C)NC(C)=C(C(=O)OC)C1c1cc(NC(=O)NC2CCCCC2)ccc1OC(F)F | > 10 µM | > 10 µM
CS(=O)(=O)c1ccc(S(=O)(=O)Nc2cccc3c2CCCC3)cc1 | > 10 µM | > 10 µM
N#C/C(=C\c1sc(N2CCCCC2)nc1-c1ccccc1)c1nnc2n1CCCCC2 | > 10 µM | > 10 µM
CCN(CC)S(=O)(=O)c1cccc(NC(=O)C23CC4CC(C2)CC(c2ccc(C)cc2)(C4)C3)c1 | > 10 µM | > 10 µM
Oc1ccc(CNC(c2ccc3c(c2)CCC3)c2cccs2)cc1 (stereo unspecified) | > 10 µM | > 10 µM
CCOC(/C=C1\Sc2c(ccc3c2CCCC3)N1CC)=C1/SC(=S)N(CC)C1=O | > 10 µM | > 10 µM
Cc1cc(C(O)=C2Sc3ccccc3C2=O)c(C)n1C | > 10 µM | > 10 µM
CCOc1cccc(C(=O)Nc2c(C)cc(Br)cc2C)c1 | > 9.48 µM | > 9.48 µM
Cc1ccc(C)c(OCC(O)Cn2nc(C)c3ccccc3c2=O)c1C (stereo unspecified) | > 10 µM | > 10 µM
CC(c1cc2ccccc2o1)N(C)C(=O)Cc1ccccc1F (stereo unspecified) | > 10 µM | > 10 µM
O=C(Cc1ccccc1)NCC(=O)N1CCOC(c2ccccc2)C1 (stereo unspecified) | > 10 µM | > 10 µM
Cc1nc(SCC(=O)N(C)Cc2cnn(Cc3ccccc3)c2)c2c(C)c(C)sc2n1 | > 10 µM | > 10 µM
CC(C)CNC(=O)c1cc(Br)ccc1O | > 10 µM | > 10 µM

Structure (SMILES) | IC50 | IC90
Cc1cc2ncn(CC(O)CN3CCOCC3)c2cc1C (stereo unspecified) | > 10 µM | > 10 µM
Cc1cc(OCC(=O)N(C)Cc2nc3ccsc3c(=O)[nH]2)ccc1C(C)C | > 10 µM | > 10 µM
Cc1nc(Sc2ncnc3scc(-c4ccc(F)cc4)c23)oc1C | > 10 µM | > 10 µM
CC(C)Cn1c(=O)n(C)c(=O)c2c(SCC#N)nc(CC(C)(C)C)nc21 | > 10 µM | > 10 µM
CC(C)c1ccc(C(=O)N2CC(C(=O)N3CCOCC3)Oc3ccccc32)cc1 (stereo unspecified) | > 10 µM | > 10 µM
O=C(CCc1ncc(-c2ccccc2)o1)Nc1ncccc1O | > 10 µM | > 10 µM
CCN(CC(=O)Nc1cccc(OC)c1)C(=O)C1Cc2ccccc2O1 (stereo unspecified) | > 10 µM | > 10 µM
CCCc1ccc(C(NC(=O)Cn2ccc(=O)[nH]c2=O)c2cccs2)cc1 (stereo unspecified) | > 10 µM | > 10 µM
O=C(Nc1ccccc1SCc1ccsc1)C1CCCCC1 | > 10 µM | > 10 µM
O=c1[nH]c2ccccc2c(=O)n1CC1(N2CCCCC2)CCCCC1 | > 10 µM | > 10 µM
O=C(Nc1cccc(SC(F)(F)C(F)(F)C(F)(F)F)c1)C1(S(=O)(=O)c2ccccc2)CC1 | > 10 µM | > 10 µM
CC(NC(=O)NCc1ccccc1)c1ccc2ccccc2c1 (stereo unspecified) | > 10 µM | > 10 µM
O=C1CN(C(=O)Cc2ccc3c(c2)CCO3)c2ccccc2N1 | > 10 µM | > 10 µM
Cc1noc2nc(C3CC3)cc(C(=O)N3CCC(C(N)=O)CC3)c12 | > 10 µM | > 10 µM
Clc1ccc(OC2OCCOC2Oc2ccc(Cl)cc2Cc2ccccc2)c(Cc2ccccc2)c1 (stereo unspecified) | > 10 µM | > 10 µM
CCOc1ccc2nc(SCC(=O)N3Cc4ccccc4CC3C(=O)O)sc2c1 (stereo unspecified) | > 10 µM | > 10 µM
Cc1ccc(S(=O)(=O)Nc2ccc(C(=O)Nc3ncccc3O)cc2)cc1C | 7.38 µM | > 10 µM
CC(C)C1NC(=O)N(CCCOc2ccc(C(C)(C)C)cc2)C1=O (stereo unspecified) | 9.61 µM | > 10 µM
NC(=O)c1cc(Cl)ccc1OCc1ccc(OC(F)(F)F)cc1 | > 10 µM | > 10 µM
CCC(C)(C)NC(=O)CSC(c1ccc(F)cc1)c1ccc(F)cc1 | > 10 µM | > 10 µM
CCOC(=O)c1c(-c2ccc(Cl)cc2)csc1Nc1nc(S(=O)(=O)c2ccc(Cl)cc2)c(Cl)s1 | 5.47 µM | > 10 µM
COc1ccccc1N(C(=O)c1cccc(C#N)c1)c1nc2ccccc2s1 | > 10 µM | > 10 µM

Structure (SMILES) | IC50 | IC90
Cc1ccc(-c2nc(C(=O)N3CCCc4ccccc43)cs2)cc1 | 2.91 µM | > 10 µM
CNC(=O)c1ccc(CN(Cc2ccco2)Cc2cccc3cccnc23)cc1 | > 10 µM | > 10 µM
COc1ccc(C(=O)C2CCN(c3nn4cc(C(C)(C)C)nc4s3)CC2)cc1 | 3.34 µM | 4.16 µM
COc1ccc(C)cc1C(C)NC(=O)c1cc2ccsc2[nH]1 (stereo unspecified) | > 10 µM | > 10 µM
Cc1ccc(Oc2ccc(OCC(=O)NC3CCN(C(C)C)CC3)cc2)cc1 | > 10 µM | > 10 µM
O=C(c1nn(-c2ccccc2)c2c1CCC2)N1CCn2c1nc1ccccc12 | > 10 µM | > 10 µM
C=CCNS(=O)(=O)c1ccc(C(=O)NCc2ccccc2OC(F)F)cc1 | > 10 µM | > 10 µM
CCCn1nc(C(=O)N2CC(C)CC(C)C2)ccc1=O (stereo unspecified) | > 10 µM | > 10 µM
CN(C(=O)CN1CCc2ccccc2C1)C1(C#N)CCCCC1 | > 10 µM | > 10 µM
COc1ccc(OC)c(CSc2nnc(Nc3cccc(F)c3)s2)c1 | > 10 µM | > 10 µM
O=C(Cc1cc(Cl)c2c(c1)OCCO2)NC(c1ccccc1)c1cccs1 (stereo unspecified) | > 10 µM | > 10 µM
CCn1c(SCC(=O)NC(=O)NCc2cccs2)nnc1C1CC1 | > 10 µM | > 10 µM
Cc1nccn1Cc1cccc(CNS(=O)(=O)c2ccc3ccccc3c2)c1 | > 10 µM | > 10 µM
CCc1cccc(NC(=O)c2cc(C3CC3)nc3c2c(C)nn3C)c1 | > 10 µM | > 10 µM
Cc1cc(C)c2c(C)c(C(=O)Nc3nc4ccccc4s3)sc2n1 | 0.841 µM | 1.17 µM
O=S(=O)(c1ccccc1)N1CN(c2ccc(N3CCOCC3)cc2)c2nc3ccccc3nc21 | > 10 µM | > 10 µM
CCOc1ncccc1C(=O)Nc1ccc(NC(=O)C2CC2)cc1C(F)(F)F | > 10 µM | > 10 µM
Cc1cccc(OCc2nnc(SCC(=O)c3ccc4c(c3)CCC4)o2)c1 | > 10 µM | > 10 µM
Cc1nnc(SCCCc2nc(-c3ccncc3)no2)n1Cc1ccccc1 | > 10 µM | > 10 µM
O=C1CC2(CCCC2)C(=O)N1CC(O)c1ccccc1 (stereo unspecified) | > 10 µM | > 10 µM
N#Cc1ccc(OCC(=O)c2ccc(OC(F)F)cc2OC(F)F)cc1 | > 10 µM | > 10 µM
CCc1cccc2c(C3=CCN(c4ncccn4)CC3)c[nH]c12 | > 10 µM | > 10 µM
